“Also recorded” adds a separate entry of the source.
Columns and labels:
[1] = test system: differentiated SH-SY5Y neuronal cells exposed to Kgp and/or RgpB; experiment: gingipain induced toxicity in differentiated SH-SY5Y neuronal cells; type: cell-based; settings: 100 nM Kgp and/or RgpB, 24 hours, microscopy
Protocol: SH-SY5Y neuroblastoma cells were cultured and differentiated in the presence of 5 uM retinoic acid based on established methods. Differentiation into neuronal cells was verified by observation of neurite outgrowth. The differentiated cells were exposed to 100 nM Kgp and/or RgpB for 24 hours, in the presence or absence of gingipain inhibitors. Results were recorded using a digital microscope camera.

P. gingivalis = settings: cited from earlier work
Rgp = settings: cited from earlier work

| Compound | protection against gingipain induced toxicity / cell death [1] | growth inhibition of P. gingivalis (P. gingivalis) | also measured |
| --- | --- | --- | --- |
| CN(C)C(=O)[C@H](CCCCN)NC(=O)C(=O)[C@H](CCCN=C(N)N)NC(=O)[C@H](CCCCN)NC(=O)OCc1ccccc1 [Kyt-1] | can protect neurons; also recorded: effective but less so |  |  |
| CN(NC(=O)CC[C@H](NC(=O)OCc1ccccc1)C(=O)N[C@@H](CCCCN)C(=O)C(=O)NCc1ccccc1)c1ccccc1 [Kyt-36] | can protect neurons; also recorded: more protective than Rgp inhibitors; also recorded: largely blocks gingipain induced toxicity |  | protection against gingipain induced toxicity / cell death ([1]; listed as Kyt 36): prevented gingipain induced neurodegeneration |
| CC(C)C[C@H](NC(=O)[C@@H](O)[C@H](N)Cc1ccccc1)C(=O)O [bestatin] |  | selectively inhibits growth |  |
| NC(=O)CI [iodoacetamide] | blocks toxicity |  | protection against gingipain induced toxicity / cell death ([1]; listed as Iodoacetamide): prevents this effect |
| phenylalanyl-ureido-citrullinyl-valyl-cycloarginal [FA-70C1] |  | exhibits growth-inhibitory activity | Rgp inhibition (Rgp): potent Rgp inhibitor |

Reference: patent publication US20170014468A1, “METHODS OF USE FOR THERAPEUTICS TARGETING THE PATHOGEN PORPHYROMONAS GINGIVALIS” (Cortexyme, Inc., priority 2014, published 2017)
